According to US20050020588A1, “Cysteine protease inhibitors” (priority 1999, published 2005):
Where two headings read alike, the source gives them in different places.

Tests used:
[1] = target: Mammalian Cathepsin S (Homo sapiens, UniProt P25774); assay: Ki competitive inhibition, mammalian cathepsin S; type: biochemical
Description: (§1) Cathepsin S (Mammalian, murine and rat)
(§2) Assays were performed in 100 mM sodium phosphate, 100 mM NaCl, pH 6.5 (buffer) in white 384 well plates (Coming Costar). Eight inhibitors were assayed per plate.
(§3) Inhibitor dilutions were performed on a 96 well V-bottomed polypropylene plate (Corning Costar). 100 μl of buffer was placed in wells 2-5 and 7-12 of rows A, B, C and D. Sufficient of each inhibitor at 10 mM in DMSO was placed into wells A1-D1 and A6-D6 to give the desired final concentration when the volume in the well was made up to 200 μl with buffer. Column 1 was made up to 200 μl with buffer, mixed by aspirating and dispensing 100 μl in the well, and 100 μl transferred to column 2. The pipette tips were changed and the mixing and transferral repeated to column 5. This process was repeated for columns 6-10.
(§4) Substrate dilutions were performed on a 96 deep well polypropylene plate (Beckman Coulter). 280 μl of buffer was placed in wells B-H of columns 1 and 2.70 μl of 10 mM boc-Val-Leu-Lys-AMC was placed in A1 and A2. 2×250 μl of buffer was added to wells A1 and A2, mixed by aspirating and dispensing 280 μl in the well, and 280 μl transferred to row B. The pipette tips were changed and the process repeated down the plate to row H.
(§5) Column 1 of the substrate dilution plate was distributed at 10 μl per well into alternate rows beginning at row A. Column 2 was distributed to alternate rows beginning at row B. Row A of the inhibitor dilution plate was distributed at 10 μl per well to alternate rows and columns starting at A1. Row B was distributed to alternate rows and columns starting at A2. Row C was distributed to alternate rows and columns starting at B1 and row D was distributed to alternate rows and columns starting at B2. The assay was started by the addition of 30 μl per well of 20 nM cathepsin S in buffer containing 10 mM 2-mercaptoethanol.
(§6) Data were saved as text files and imported into Excel. The initial rates were determined by linear regression and then fitted to the competitive inhibition equation using SigmaPlot.

[2] = target: Murine Cathepsin S (Mus musculus, UniProt O70370); assay: Ki competitive inhibition, murine cathepsin S; type: biochemical
Description: as §1, §2, §3, §4, §5, §6

[3] = target: Rat Cathepsin S (Rattus norvegicus, UniProt Q02765); assay: Ki competitive inhibition, rat cathepsin S; type: biochemical
Description: as §1, §2, §3, §4, §5, §6

[4] = target: Mammalian Cathepsin L (Homo sapiens, UniProt P07711); assay: Ki competitive inhibition, cathepsin L; type: biochemical
Description: as §6
(§7) Assays were performed essentially as above. For cathepsin L, the buffer used was 100 mM sodium acetate, 1 mM EDTA, pH 5.5 and the substrate was D-Val-Leu-Lys-AMC with a highest concentration of 100 μM. For cathepsin K, the buffer used was 100 mM MES/Tris, 1 mM EDTA, pH 7.0 and the substrate was D-Ala-Leu-Lys-AMC with a highest concentration of 250 μM.

[5] = target: T1, Mammalian Cathepsin K (Homo sapiens, UniProt P43235); assay: Ki competitive inhibition, cathepsin K; type: biochemical
T1 sequence (P43235 115-329): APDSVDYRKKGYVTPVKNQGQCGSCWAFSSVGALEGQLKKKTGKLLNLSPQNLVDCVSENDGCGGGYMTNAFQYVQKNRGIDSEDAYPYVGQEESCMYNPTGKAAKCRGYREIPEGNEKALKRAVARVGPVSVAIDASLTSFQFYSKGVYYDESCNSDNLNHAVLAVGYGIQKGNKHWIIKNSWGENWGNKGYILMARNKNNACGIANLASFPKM
Description: as §7
Convenient assays for cathepsin K arere carried out using human recombinant enzyme. Standard assay conditions for the determination of kinetic constants used a fluorogenic peptide substrate, typically H-D-Ala-Leu-Lys-AMC, and were determined in either 100 mM Mes/Tris, pH 7.0 containing 1 mM EDTA and 10 mM 2-mercaptoethanol or 100 mM Na acetate, pH 5.5 containing 5 mM EDTA and 20 mM cysteine. The enzyme concentration used was 5 nM. The stock substrate solution was prepared at 10 mM in DMSO. Screens were carried out at a fixed substrate concentration of 60 μM and detailed kinetic studies with doubling dilutions of substrate from 250 μM. The total DMSO concentration in the assay was kept below 3%. All assays were conducted at ambient temperature. Product fluorescence (excitation at 390 nm, emission at 460 nm) was monitored with a Labsystems Fluoroskan Ascent fluorescent plate reader. Product progress curves were generated over 15 minutes following generation of AMC product.
Potential inhibitors are screened using the above assay with variable concentrations of test compound. Reactions were initiated by addition of enzyme to buffered solutions of substrate and inhibitor. Ki values were calculated according to equation 1 [formula] where ν0 is the velocity of the reaction, V is the maximal velocity, S is the concentration of substrate with Michaelis constant of KM, and I is the concentration of inhibitor. Determination of Falcipain 2 Proteolytic Catalytic Activity

[6] = Oral bioavailability in mice; details: mouse, in vivo, dosed i.v. and orally at 10 mg/kg to mice, read-out: oral bioavailability % (F)
[7] = Table 1, first line of each CAP-P2 block, read-out: Ki competitive inhibition measurements vs Mammalian Cathepsin S
[8] = Table 2, Human, read-out: Ki (μM) Human, Mammalian Cathepsin S
[9] = Table 2, Mouse, read-out: Ki (μM) Mouse, Murine Cathepsin S
[10] = Table 2, Rat, read-out: Ki (μM) Rat, Rat Cathepsin S
[11] = Table 1, second line of each CAP-P2 block, read-out: Ki competitive inhibition measurements vs Mammalian Cathepsin L
[12] = Table 1, third line of each CAP-P2 block, read-out: Ki competitive inhibition measurements vs Mammalian Cathepsin K

Chain of Mammalian Cathepsin L (P07711 114-333): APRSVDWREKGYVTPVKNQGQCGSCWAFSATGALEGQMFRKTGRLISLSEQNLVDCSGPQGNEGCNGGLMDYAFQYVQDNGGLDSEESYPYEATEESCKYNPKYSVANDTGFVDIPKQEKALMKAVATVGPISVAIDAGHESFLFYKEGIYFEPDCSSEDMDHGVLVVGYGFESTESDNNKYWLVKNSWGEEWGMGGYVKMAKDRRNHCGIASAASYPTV
Chain of Mammalian Cathepsin S (P25774 115-331): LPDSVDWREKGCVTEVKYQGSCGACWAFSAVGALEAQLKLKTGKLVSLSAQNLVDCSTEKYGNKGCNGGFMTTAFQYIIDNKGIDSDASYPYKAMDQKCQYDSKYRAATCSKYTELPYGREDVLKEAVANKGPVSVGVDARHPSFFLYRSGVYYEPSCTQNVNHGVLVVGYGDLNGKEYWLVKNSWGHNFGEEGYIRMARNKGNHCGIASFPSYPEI
Chain of Rat Cathepsin S (Q02765 113-330): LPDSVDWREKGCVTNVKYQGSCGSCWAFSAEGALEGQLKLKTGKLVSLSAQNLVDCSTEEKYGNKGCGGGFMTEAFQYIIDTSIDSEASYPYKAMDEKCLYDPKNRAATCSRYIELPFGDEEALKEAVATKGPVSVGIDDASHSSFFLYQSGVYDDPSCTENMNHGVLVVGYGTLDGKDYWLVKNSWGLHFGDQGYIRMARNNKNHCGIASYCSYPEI

| Structure (SMILES) | Ki [1, 7] [µM] | Ki [4, 11] [nM] | Ki [5, 12] [nM] | also measured |
| --- | --- | --- | --- | --- |
| CC[C@@H]1OCC(=O)[C@H]1NC(=O)[C@H](CC(C)(C)C)NC(=O)c1ccoc1 [drawing 79/drawing 78 X = O] | – | – | – | Ki [1, 8]: 0.053 µM; Ki [2, 9]: 0.039 µM; Ki [3, 10]: 0.058 µM |
| CCCC[C@H](NC(=O)c1ccc(N(C)C)cc1)C(=O)N[C@@H]1C(=O)CO[C@H]1C [CAP7-L-Nle/drawing 71] | 6.2 | 49900 | 1300 | – |
| C[C@H]1OCC(=O)[C@H]1NC(=O)[C@H](Cc1ccc(O)cc1)NC(=O)c1cccs1 [CAP5-L-Tyr/drawing 69] | 1.6 | 500 | > 100000 | – |
| CCn1nc(C)cc1C(=O)N[C@@H](Cc1ccc(O)cc1)C(=O)N[C@@H]1COCC1=O [CAP10-L-Tyr/drawing 73] | 3.7 | 100 | > 100000 | – |
| CCCC[C@H](NC(=O)c1ccoc1)C(=O)N[C@@H]1C(=O)CO[C@@H]1C [CAP8-L-Nle/drawing 69] | 1.5 | 54400 | 13200 | – |
| C[C@H]1OCC(=O)[C@H]1NC(=O)[C@H](Cc1ccc(O)cc1)NC(=O)Cc1ccccc1 [CAP2-L-Tyr/drawing 69] | 3.2 | 220 | > 100000 | – |
| CCn1nc(C)cc1C(=O)N[C@@H](Cc1ccc(O)cc1)C(=O)N[C@@H]1C(=O)CO[C@H]1C [CAP10-L-Tyr/drawing 71] | 4.1 | 450 | > 100000 | – |

Second part, led by results:

| Ki [1, 7] [µM] | Ki [4, 11] [nM] | Ki [5, 12] [nM] | Structure (SMILES) | also measured |
| --- | --- | --- | --- | --- |
| 0.1 | > 100000 | 7300 | C[C@@H]1OCC(=O)[C@H]1NC(=O)[C@H](CC(C)(C)C)NC(=O)c1ccoc1 [CAP8-L-tBu-Ala/drawing 71, Furan-3-carboxylic acid[3,3-dimethyl-1S-(2S-methyl-4-oxo-tetrahydrofuran-3S-ylcarbamoyl)butyl]amide] | Ki [1, 8]: 0.13 µM; Ki [2, 9]: 0.1 µM; Ki [3, 10]: 0.211 µM; bioavailability [6]: 58% |
| 0.015 | > 100000 | – | CC[C@@H]1OCC(=O)[C@H]1NC(=O)[C@H](CC(C)(C)C(C)C)NC(=O)c1ccoc1 [CAP8-Hybrid3/drawing 68, Furan-3-carboxylic acid[3,3,4-trimethyl-1S-(2S-ethyl-4-oxo-tetrahydrofuran-3-ylcarbamoyl)pentyl]amide] | Ki [1, 8]: 0.015 µM; Ki ([1]; read-out: Ki mammalian cath S): 0.015 µM; Ki ([2]; read-out: Ki murine cath S): 0.149 µM; Ki ([3]; read-out: Ki rat cath S): 0.271 µM; Ki ([4]; read-out: Ki cathepsin L): > 100000 nM; Ki ([5]; read-out: Ki cathepsin K): 5500 nM |
| 0.095 | 55200 | 1550 | CC1OCC(=O)C1NC(=O)C(CC(C)(C)C)NC(=O)c1ccsc1 [CAP11-L-tBu-Ala/drawing 71] | Ki [1, 8]: 0.095 µM; Ki [2, 9]: 0.048 µM; Ki [3, 10]: 0.084 µM |
| 0.97 | 38900 | 16000 | CC(C)CC[C@H](NC(=O)c1ccoc1)C(=O)N[C@@H]1C(=O)CO[C@@H]1C [CAP8-L-hLeu/drawing 69] | – |
| 0.68 | 670 | 2750 | Cc1cc(C(=O)N[C@@H](CC(C)C)C(=O)N[C@@H]2C(=O)CO[C@H]2C)oc1C [CAP6-L-Leu/drawing 71] | – |
| 0.61 | 1100 | 750 | Cc1cc(C(=O)N[C@@H](CC(C)C)C(=O)N[C@H]2C(=O)CO[C@H]2C)oc1C [CAP6-L-Leu/drawing 70] | – |
| 0.78 | 48700 | 34300 | CC(C)CC[C@H](NC(=O)N1CCOCC1)C(=O)N[C@@H]1C(=O)CO[C@@H]1C [CAP9-L-hLeu/drawing 69] | – |
| 0.76 | 2800 | 5800 | CCCC[C@H](NC(=O)c1ccccc1)C(=O)N[C@H]1COCC1=O [CAP3-L-Nle/drawing 72] | – |
